Like-named read-outs stand apart in the source and are kept apart here.
How the values were obtained:
Test in all cases: 3H-TdR incorporation at 72 hr (24 hr drug exposure, wash, 48 hr)
MCF-7 = format: cell-based, Human; details: Homo sapiens, MCF7, read-out: IC50 in μM (3H-TdR incorporation at 72 hr) MCF-7 24 h, MCF-7 Human Breast Carcinoma, 72 hr assay
Description: (§1) Exposition of 24 hr to drug, wash, incubated for another 48 hr (total of 72 hr assay)
(§2) (3H-Thymidine Incorporation Assay)

H-460 = format: cell-based, Human; details: Homo sapiens, NCI-H460, read-out: IC50 in μM (3H-TdR incorporation at 72 hr) H-460 24 h, H-460 Human Lung Carcinoma, 72 hr assay
Description: as §1, §2

SF-268 = format: cell-based, Human
Description: as §1, §2

CCRF-CEM = format: cell-based; details: Homo sapiens, CCRF-CEM, read-out: IC50 in μM (3H-TdR incorporation at 72 hr) CCRF-CEM 24 h, CCRF-CEM T-cell Leukemia, 72 hr assay
Description: as §1, §2

CEM/dCK- = format: cell-based; details: for IC50: Homo sapiens, CCRF-CEM, read-out: IC50 in μM (3H-TdR incorporation at 72 hr) CEM/dCK- 24 h, CCRF-CEM deoxycytidine kinase-deficient, 24 h drug exposure, 72 hr assay; for Factor* (Resistance Factor = Ratio of dCK- on Wild-type CCRF-CEM): ratio of IC50 CEM/dCK- to IC50 CCRF-CEM
Description: as §1, §2

[1] = Homo sapiens, SF-268, read-out: IC50 in μM (3H-TdR incorporation at 72 hr) SF-268 24 h, SF-268 Human Central Nervous System Tumor, 24 h drug exposure, 72 hr assay

Row | Structure (SMILES) | IC50 (MCF-7) | IC50 (H-460) | IC50 (SF-268; [1]) | IC50 (CCRF-CEM) | IC50 (CEM/dCK-) | Factor* (Resistance Factor = Ratio of dCK- on Wild-type CCRF-CEM) (CEM/dCK-) | IC50 (SF-268)
1 | CCCCN(/C=N/c1ccn([C@@H]2CO[C@H](CO)O2)c(=O)n1)CCCC (stereo in doubt) [Compound 221, N,N-Dibutyl-N′-[1-(2-hydroxymethyl [1,3]dioxolan-4-yl)-2-oxo-1,2-dihydro-pyrimidin-4-yl]-formamidine] | 0.39 µM | 0.43 µM | 1.6 µM | 0.13 µM | > 100 µM | >769 | 
2 | CCCCCc1ccc(OC(=O)Nc2ccn([C@@H]3CO[C@H](CO)O3)c(=O)n2)cc1 [Compound 250, [1-(2-HYDROXYMETHYL- [1,3]DIOXOLAN-4-YL)-2- OXO-1,2-DIHYDRO- […]-4-YL]- CARBAMIC ACID 4-PENTYL- PHENYL ESTER] | 0.16 µM | 0.17 µM | 0.17 µM | 0.063 µM | 31 µM | 492 | 
3 | C[C@H]1CC[C@@](C)(C(=O)Nc2ccn([C@@H]3CO[C@H](CO)O3)c(=O)n2)C1(C)C [Compound 235, 1,2,2,3-TETRAMETHYL- CYCLOPENTANECARBOXYLIC ACID [1-(2- HYDROXYMETHYL- [1,3]DIOXOLAN-4-YL)-2- OXO-1,2-DIHYDRO- PYRIMIDIN-4-YL]-AMIDE] | 1.1 µM | 1.6 µM | 0.38 µM | 1.2 µM | 61 µM | 51 | 
4 | Cc1ccc(C)c(OCCCC(C)(C)C(=O)Nc2ccn([C@@H]3CO[C@H](CO)O3)c(=O)n2)c1 [Compound 234, 5-(2,5-DIMETHYL- PHENOXY)-2,2-DIMETHYL- PENTANOIC ACID [1-(2- HYDROXYMETHYL- [1,3]DIOXOLAN-4-YL)-2- OXO-1,2-DIHYDRO- PYRIMIDIN-4-YL]-AMIDE] | 0.1 µM | 1.5 µM | 0.1 µM | 0.95 µM | > 100 µM | >105 | 
5 | Nc1ccn([C@@H]2CO[C@H](COC(=S)Sc3ccccc3)O2)c(=O)n1 [Compound 205, DITHIOCARBONIC ACID O- [4-(4-AMINO-2-OXO-2H- PYRIMIDIN-1-YL)- [1,3]DIOXOLAN-2-YL METHYL] ESTER S-PHENYL ESTER] | 0.9 µM | 0.28 µM | 0.1 µM | 0.26 µM | > 100 µM | >385 | 
6 | O=c1nc(NS(=O)(=O)c2ccc([N+](=O)[O-])cc2[N+](=O)[O-])ccn1[C@@H]1CO[C@H](CO)O1 [Compound 188, N-[1-(2-HYDROXYMETHYL- [1,3]DIOXOLAN-4-YL)-2- OXO-1,2-DIHYDRO- […]-4-YL]-2,4- DINITRO- BENZENESULFONAMIDE] | 3 µM | 0.097 µM |  | 0.79 µM | > 100 µM |  | 2.4 µM
7 | C=CCOC[C@H]1OC[C@@H](n2ccc(N)nc2=O)O1 [Compound 179, (S,S)-1-(2′- ALLYLOXYMETHYL- [1,3]DIOXOLAN-4′-YL)-4- AMINO-1H-PYRIMIDIN-2- ONE] | 2.8 µM | 1.7 µM | 0.56 µM | 2.4 µM | > 100 µM | >42 | 
8 | Nc1ccn([C@@H]2CO[C@H](COC(=O)c3ccccc3Cc3ccccc3)O2)c(=O)n1 [Compound 220, BIPHENYL-2-CARBOXYLIC ACID 4-(4-AMINO-2-OXO- 2H-PYRIMIDIN-1-YL)- [1,3]DIOXOLAN-2-YL METHYL ESTER] | 0.029 µM | 0.0034 µM | 0.042 µM | 0.0035 µM | > 100 µM | >28571 | 
9 | CC(C)C[C@H](NC(=O)OCc1ccccc1)C(=O)Nc1ccn([C@@H]2CO[C@H](CO)O2)c(=O)n1 [Compound 254, {1-[1-(2-HYDROXYMETHYL- [1,3]DIOXOLAN-4-YL)-2- OXO-1,2-DIHYDRO- PYRIMIDIN-4-YL CARBAMOYL]-3-METHYL- BUTYL}-CARBAMIC ACID BENZYL ESTER] | 0.18 µM | 0.17 µM | 0.29 µM | 0.098 µM | 31 µM | 316 | 
10 | O=C(Nc1ccn([C@@H]2CO[C@H](CO)O2)c(=O)n1)C1(c2ccccc2)CCCCC1 [Compound 225, 1-PHENYL- CYCLOHEXANECARBOXYLIC ACID [1-(2- HYDROXYMETHYL- [1,3]DIOXOLAN-4-YL)-2- OXO-1,2-DIHYDRO- PYRIMIDIN-4-YL]-AMIDE] | 11 µM | 11 µM | 43 µM | 0.88 µM | > 100 µM | >113 | 
